{"source": "patent EP0462830B1", "about": "“Cyclic ether derivatives” (ZENECA LIMITED, priority 1990, dated 1991)", "key": {"5-LO [1]": {"target": "T1, 5-LO (Homo sapiens, UniProt P09917)", "T1 construct": "incubating a test compound with heparinised human blood, prior to challenge with the calcium ionophore A23187; endogenous in cells; host or cells: leukocytes in heparinised human whole blood", "T1 sequence (P09917 1-674)": "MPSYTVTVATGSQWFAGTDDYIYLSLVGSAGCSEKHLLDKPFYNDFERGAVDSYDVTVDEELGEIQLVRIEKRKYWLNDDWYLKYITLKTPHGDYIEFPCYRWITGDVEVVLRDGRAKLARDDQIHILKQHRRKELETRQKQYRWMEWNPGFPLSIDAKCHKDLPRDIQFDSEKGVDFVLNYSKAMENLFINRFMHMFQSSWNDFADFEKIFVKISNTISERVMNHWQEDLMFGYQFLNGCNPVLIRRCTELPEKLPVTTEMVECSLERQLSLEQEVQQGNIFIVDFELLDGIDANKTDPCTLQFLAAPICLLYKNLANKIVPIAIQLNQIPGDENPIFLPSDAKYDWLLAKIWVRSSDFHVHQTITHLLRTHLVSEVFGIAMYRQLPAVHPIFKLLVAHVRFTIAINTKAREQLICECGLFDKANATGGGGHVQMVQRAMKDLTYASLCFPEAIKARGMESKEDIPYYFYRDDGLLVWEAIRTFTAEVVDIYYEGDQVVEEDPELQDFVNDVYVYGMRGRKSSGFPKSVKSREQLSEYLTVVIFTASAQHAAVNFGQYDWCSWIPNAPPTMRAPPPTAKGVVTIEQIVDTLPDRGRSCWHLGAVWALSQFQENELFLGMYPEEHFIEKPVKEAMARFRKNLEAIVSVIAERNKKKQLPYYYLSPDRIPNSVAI", "test": "Test b): heparinised human blood challenged with calcium ionophore A23187, radioimmunoassay of LTB₄", "format": "cell-based", "conditions": "read-out: IC₅₀ (LTB₄)", "procedure": "This test provides a measure of the intrinsic inhibitory properties of a test compound against soluble 5-LO in an extracellular environment. • b) An in vitro assay system involving incubating a test compound with heparinised human blood, prior to challenge with the calcium ionophore A23187 and then indirectly measuring the inhibitory effects on 5-LO by assaying the amount of LTB₄ using specific radioimmunoassays described by Carey and Forder (F. Carey and R.A. Forder, Prostaglandins, Leukotrienes Med., 1986, 22, 57; Prostaglandins, 1984, 28, 666; Brit. J. Pharmacol. 1985, 84, 34P) which involve the use of a protein-LTB₄ conjugate produced using the procedure of Young et alia (Prostaglandins, 1983, 26(4), 605-613). […] This test provides an indication of the effects of a test compound against 5-LO and also cyclooxygenase in the presence of blood cells and proteins."}, "5-LO [2]": {"tested_on": "5-LO", "test": "Test g): zymosan-induced liberation of LTB₄ within a subcutaneous air pouch of male rats", "format": "in vivo", "conditions": "rat air pouch"}}, "data": [{"compound": "CSC1(c2cccc(OCc3ccc4ccccc4c3)c2)CCOCC1", "note": "[Example 1, 4-methylthio-4-[3-(naphth-2-ylmethoxy)phenyl]tetrahydropyran]", "values": [{"measurement": "IC50", "setting": "5-LO [1]", "value": 50, "unit": "nM"}, {"measurement": "oral ED₅₀(LTB₄)", "setting": "5-LO [2]", "value": 8, "unit": "mg/kg"}]}]}
